Measured values from paper PMC7367283, “A PIP2 substitute mediates voltage sensor-pore coupling in KCNQ activation” (Communications Biology, 2020).
“And” between values parts separate entries of the source, which are not always exact repeats. Identical values can stand only once.

Legend:
Assay type in all cases: cell-based
[1] = molecular target: KCNQ3 with mutation A315T (KCNQ3*) (Homo sapiens, UniProt O43525, A315T); experiment: Two-electrode voltage clamp of KCNQ3* in Xenopus oocytes; conditions: Q3*, individual oocytes
Excerpt: (§1) KCNQ2 and KCNQ3 form a channel complex that carries M currents in neurons. Similar to KCNQ1, these KCNQ subunits require PIP2 for voltage-dependent activation. KCNQ2 alone can express functional channels in Xenopus oocytes, while KCNQ3 alone cannot. However, a single mutation, A315T, allows KCNQ3 to functionally express in Xenopus oocytes. We examined the effects of CP1 on KCNQ2, KCNQ3 with mutation A315T (denoted as KCNQ3*), KCNQ2+KCNQ3, and KCNQ2+KCNQ3* expressed in Xenopus oocytes (Fig. 5a). Similar to the effects on KCNQ1 and IKs channels, CP1 changed the amplitude of currents (Fig. 5b), shifted the G–V relation to more negative voltages (Fig. 5c), and slowed the deactivation kinetics (Fig. 5d) for all of these KCNQ channels. These CP1 effects were relatively small on KCNQ2 as compared with those on other KCNQ channels, and the effects on KCNQ2/KCNQ3* and KCNQ2/KCNQ3 complexes were closer to those on KCNQ2 alone.
(§2) Fig. 5 Subtype selectivity of CP1 on KCNQ channels. a Current traces of KCNQ channels as indicated in the absence and the presence of 10 µM CP1. […]
(§3) The whole-oocyte ionic currents were recorded with a GeneClamp 500B amplifier (Axon Instruments, CA) or iTEV90 amplifier (HEKA, Germany) and then sampled at 1 kHz and low-pass-filtered at 2 kHz. […] The Kir1.1 current was recorded with a high K^+ bath solution containing (in mM) 96 KCl, 4 NaCl, 1 CaCl2, 2 MgCl2, and 10 HEPES, pH 7.3–7.4. The HCN4 current was recorded in ND66 solution containing (in mM) 66 NaCl, 32 KCl, 1.8 CaCl2, 1 MgCl2, and 5 HEPES, pH 7.6. All the other potassium channels were recorded in ND96 solution. The currents of CaV1.2 channel were recorded in 40 mM Ba^2+ bath solution containing (in mM) 40 Ba(OH)2, 50 TEA-OH, 2 KOH, and 5 HEPES, adjusted to pH 7.4 with methanesulfonic acid. […] The HCN4 currents were recorded by a test pulse between −30 and −140 mV in 10-mV step from a holding potential of −30 mV. […]

[2] = molecular target: KCNQ2 (Homo sapiens, UniProt O43526); experiment: Two-electrode voltage clamp of KCNQ2 in Xenopus oocytes; conditions: Q2, individual oocytes
Excerpt: as §1, §2, §3

[3] = molecular target: IKs (KCNQ1 + KCNE1) (Homo sapiens, UniProt P51787); experiment: IKs co-expressed with CiVSP (PIP2 depletion), two-electrode voltage clamp in Xenopus oocytes
Excerpt: (§4) We co-expressed KCNQ1 with the voltage-dependent lipid phosphatase CiVSP[44] in Xenopus oocytes and recorded KCNQ1 currents using two-electrode voltage clamp with consecutive depolarizing voltage pulses. […] To more directly test CP1 effects, we applied CP1 to the intracellular side of the inside-out membrane patch that expressed IKs channels.

[4] = molecular target: KCNQ2/KCNQ3 (Homo sapiens, UniProt O43525+O43526); experiment: Two-electrode voltage clamp of KCNQ2+KCNQ3 in Xenopus oocytes; conditions: Q2/Q3, individual oocytes
Excerpt: as §1, §2, §3

[5] = molecular target: KCNQ1 (Homo sapiens, UniProt P51787); experiment: KCNQ1 co-expressed with CiVSP (PIP2 depletion), two-electrode voltage clamp in Xenopus oocytes; conditions: ~10 µM CP1 injected into the oocyte; pulses to +60 mV
Excerpt: as §4

[6] = molecular target: KCNQ2/KCNQ3* (Homo sapiens, UniProt O43525+O43526, A315T); experiment: Two-electrode voltage clamp of KCNQ2+KCNQ3* in Xenopus oocytes; conditions: Q2/Q3*, individual oocytes
Excerpt: as §1, §2, §3

[7] = molecular target: NaV1.5 (Homo sapiens, UniProt Q14524); experiment: Cut-open oocyte recording of NaV1.5; conditions: 10 µM CP1
NaV1.5, sequence (Q14524 whole entry): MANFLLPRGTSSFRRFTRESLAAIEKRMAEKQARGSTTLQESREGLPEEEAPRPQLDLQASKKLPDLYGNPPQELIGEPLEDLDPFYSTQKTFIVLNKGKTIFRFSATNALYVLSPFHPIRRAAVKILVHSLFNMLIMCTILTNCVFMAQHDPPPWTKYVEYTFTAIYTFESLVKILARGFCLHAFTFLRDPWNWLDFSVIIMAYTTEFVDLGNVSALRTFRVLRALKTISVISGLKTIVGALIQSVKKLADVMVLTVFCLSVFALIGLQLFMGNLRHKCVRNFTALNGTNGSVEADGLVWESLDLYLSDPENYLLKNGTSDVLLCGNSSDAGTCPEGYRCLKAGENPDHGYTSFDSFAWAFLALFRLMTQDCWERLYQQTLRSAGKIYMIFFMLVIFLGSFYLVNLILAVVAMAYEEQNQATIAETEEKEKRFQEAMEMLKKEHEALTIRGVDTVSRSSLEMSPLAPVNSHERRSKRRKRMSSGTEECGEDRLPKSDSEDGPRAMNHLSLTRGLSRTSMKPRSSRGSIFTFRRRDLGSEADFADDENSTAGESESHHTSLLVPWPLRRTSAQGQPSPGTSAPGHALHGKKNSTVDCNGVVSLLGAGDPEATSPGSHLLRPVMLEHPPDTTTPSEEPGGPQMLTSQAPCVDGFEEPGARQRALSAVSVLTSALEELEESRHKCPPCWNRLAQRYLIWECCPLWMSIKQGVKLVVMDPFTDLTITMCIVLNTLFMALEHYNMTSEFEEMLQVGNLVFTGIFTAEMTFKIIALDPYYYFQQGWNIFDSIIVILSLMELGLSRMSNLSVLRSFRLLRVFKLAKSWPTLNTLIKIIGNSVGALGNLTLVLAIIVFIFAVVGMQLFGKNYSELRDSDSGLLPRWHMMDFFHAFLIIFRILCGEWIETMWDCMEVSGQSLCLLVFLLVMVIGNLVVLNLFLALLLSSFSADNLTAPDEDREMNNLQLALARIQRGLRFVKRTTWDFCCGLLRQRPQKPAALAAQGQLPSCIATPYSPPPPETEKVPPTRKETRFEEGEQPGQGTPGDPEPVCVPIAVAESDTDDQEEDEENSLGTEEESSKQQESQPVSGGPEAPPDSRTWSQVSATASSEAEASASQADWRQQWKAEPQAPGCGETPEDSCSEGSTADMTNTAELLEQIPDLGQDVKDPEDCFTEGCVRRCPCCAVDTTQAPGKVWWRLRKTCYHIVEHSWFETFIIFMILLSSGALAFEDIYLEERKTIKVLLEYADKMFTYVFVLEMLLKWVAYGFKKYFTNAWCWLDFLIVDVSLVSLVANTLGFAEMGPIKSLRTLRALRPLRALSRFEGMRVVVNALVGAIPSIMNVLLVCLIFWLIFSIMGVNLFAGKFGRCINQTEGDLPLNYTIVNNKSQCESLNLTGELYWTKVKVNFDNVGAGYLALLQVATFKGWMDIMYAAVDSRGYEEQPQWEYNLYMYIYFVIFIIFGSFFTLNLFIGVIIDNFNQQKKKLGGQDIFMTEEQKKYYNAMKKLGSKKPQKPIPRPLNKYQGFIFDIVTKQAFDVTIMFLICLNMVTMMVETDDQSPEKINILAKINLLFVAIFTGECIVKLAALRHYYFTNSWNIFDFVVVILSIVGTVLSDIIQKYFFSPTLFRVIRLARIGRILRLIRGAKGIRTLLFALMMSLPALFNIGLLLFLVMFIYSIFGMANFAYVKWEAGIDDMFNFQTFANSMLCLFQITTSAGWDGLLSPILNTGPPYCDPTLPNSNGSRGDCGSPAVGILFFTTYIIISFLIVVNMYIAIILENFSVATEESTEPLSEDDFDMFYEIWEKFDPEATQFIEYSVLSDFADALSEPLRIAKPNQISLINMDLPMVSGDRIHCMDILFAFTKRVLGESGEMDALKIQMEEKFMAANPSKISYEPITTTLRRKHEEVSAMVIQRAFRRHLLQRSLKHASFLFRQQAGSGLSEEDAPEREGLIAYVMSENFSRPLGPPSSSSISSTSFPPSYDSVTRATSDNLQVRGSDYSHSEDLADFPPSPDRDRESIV
NaV1.5, sequence (Q07699 19-218 partner): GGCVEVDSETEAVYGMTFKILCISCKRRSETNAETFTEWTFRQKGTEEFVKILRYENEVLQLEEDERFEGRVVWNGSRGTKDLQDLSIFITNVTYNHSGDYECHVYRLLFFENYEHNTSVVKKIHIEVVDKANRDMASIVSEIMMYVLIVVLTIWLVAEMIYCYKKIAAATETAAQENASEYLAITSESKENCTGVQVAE

O=S(=O)([O-])Oc1c(-c2sc3c(ccc4cccc(Cl)c43)c2OS(=O)(=O)[O-])[nH]c2ccc(Br)cc12.[Na+].[Na+] [CP1, DISODIUM 5-BROMO-2-[9-CHLORO-3-(SULFONATOOXY) NAPHTHO [1,2-B] THIEN-2-YL]-1H-INDOL-3-YL SULFATE]
outward current (Icp1/Ictrl) ([1]; 10 µM CP1, at −10 mV): 1.2737 and 1.6954 and 1.3889 and 1.1185 and 2.1991
∆V1/2 ([1]; 10 µM CP1): 53.8685 mV and 55.0436 mV and 52.8957 mV and 57.617 mV and 27.8181 mV
τ deact at -120 mV ([1]; 10 µM CP1 treated): 0.795 s and 1.6371 s and 1.4451 s and 1.5742 s and 1.825 s and 1.6646 s
outward current (Icp1/Ictrl) ([2]; 10 µM CP1, at −10 mV): 0.9785 and 0.9995 and 0.8123 and 1.2015 and 0.921 and 1.0361 and 1.0974 and 0.9815
∆V1/2 ([2]; 10 µM CP1): 17.7074 mV and 18.0799 mV and 23.5635 mV and 19.0344 mV and 22.5139 mV and 21.9525 mV and 18.3088 mV and 15.6776 mV
τ deact at -120 mV ([2]; 10 µM CP1 treated): 0.0991 s and 0.1579 s and 0.2146 s and 0.1525 s and 0.1022 s
IKs currents after PIP2 depletion ([3]; 10 µM CP1, extracellular perfusion, pulses to +60 mV): rescued IKs currents
membrane permeability ([3]; inferred from rescue by extracellular perfusion): membrane permeable
outward current (Icp1/Ictrl) ([4]; 10 µM CP1, at −10 mV): 1.7551 and 1.3309 and 1.0976 and 1.4059
∆V1/2 ([4]; 10 µM CP1): 15.349 mV and 10.5931 mV and 18.0231 mV and 10.5937 mV
τ deact at -120 mV ([4]; 10 µM CP1 treated): 0.1194 s and 0.1528 s and 0.295 s and 0.1626 s
KCNQ1 currents after PIP2 depletion [5]: currents increased with consecutive voltage pulses
outward current (Icp1/Ictrl) ([6]; 10 µM CP1, at −10 mV): 1.1575 and 0.9892 and 1.0474 and 1.088
∆V1/2 ([6]; 10 µM CP1): 15.9435 mV and 15.3238 mV and 21.3532 mV and 15.8237 mV
τ deact at -120 mV ([6]; 10 µM CP1 treated): 0.0814 s and 0.0836 s and 0.1825 s and 0.1031 s and 0.1951 s
G/Gmax Mean (Fig. 6d) ([7]; voltage -140 mV): 0.0026
G/Gmax Mean (Fig. 6d) ([7]; voltage -160 mV): 0.0055
